Source: paper PMC8177814 (Molecular pharmaceutics, 2020)
Where two headings read alike, the source gives them in different places.

How the values were obtained:
BCRP (ABCG2) [1] = molecular target: T1, BCRP (ABCG2) (Homo sapiens, UniProt Q9UNQ0); details: 30 min
T1 sequence (Q9UNQ0 1-655): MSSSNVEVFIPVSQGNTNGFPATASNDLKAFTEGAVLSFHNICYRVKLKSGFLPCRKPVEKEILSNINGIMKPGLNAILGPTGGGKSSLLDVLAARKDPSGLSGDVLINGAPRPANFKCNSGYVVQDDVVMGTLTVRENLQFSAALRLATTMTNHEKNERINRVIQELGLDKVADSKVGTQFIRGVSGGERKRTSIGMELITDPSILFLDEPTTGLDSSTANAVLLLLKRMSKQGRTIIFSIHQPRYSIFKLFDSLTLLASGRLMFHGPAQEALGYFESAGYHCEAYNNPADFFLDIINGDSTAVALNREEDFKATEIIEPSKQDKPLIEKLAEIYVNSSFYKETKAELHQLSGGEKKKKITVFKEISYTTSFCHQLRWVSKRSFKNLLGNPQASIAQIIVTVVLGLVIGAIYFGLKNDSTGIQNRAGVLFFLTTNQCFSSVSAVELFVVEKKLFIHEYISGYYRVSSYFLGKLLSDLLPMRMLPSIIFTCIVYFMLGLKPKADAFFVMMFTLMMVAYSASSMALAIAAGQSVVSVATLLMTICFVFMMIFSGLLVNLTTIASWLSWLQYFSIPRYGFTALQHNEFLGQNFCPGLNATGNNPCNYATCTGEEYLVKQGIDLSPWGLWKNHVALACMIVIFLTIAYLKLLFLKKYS

BCRP = details: previous study; cited from earlier work
human BCRP [2] = molecular target: T2, human BCRP (Homo sapiens, UniProt Q9UNQ0); assay: BCRP vesicular transport assay
T2 sequence (Q9UNQ0 1-655): T1 sequence (Q9UNQ0 1-655)

human BCRP [3] = molecular target: T2, human BCRP
BCRP (ABCG2) [4] = molecular target: T1, BCRP (ABCG2); assay: 3H-oxypurinol accumulation assay in BCRP-overexpressing HEK293 cells; details: excipients at concentrations similar to vesicle screen; 30 min

CCCCC(CC)COC(=O)CC(C(=O)OCC(CC)CCCC)S(=O)(=O)O (stereo not shown) [Docusate sodium]
increase of BCRP-mediated 3H-oxypurinol accumulation in BCRP-overexpressing HEK293 cells (BCRP (ABCG2) [1]): 26.4%

CCN(Cc1cccc(S(=O)(=O)[O-])c1)c1ccc(C(=C2C=CC(=[N+](CC)Cc3cccc(S(=O)(=O)[O-])c3)C=C2)c2ccccc2S(=O)(=O)[O-])cc1.[Na+].[Na+] [FD&C Blue No. 1]
inhibition of BCRP-mediated Lucifer yellow uptake in vesicle assays (BCRP): did not inhibit
inhibition of BCRP-mediated 3H-CCK8 uptake in vesicles (in words) (human BCRP [2]; screening concentration, inhibitor = more than 50% inhibition): inhibited

CCN(CC)c1ccc2c(-c3ccccc3C(=O)O)c3ccc(=[N+](CC)CC)cc-3oc2c1 [Rhodamine B]
increase of BCRP-mediated 3H-oxypurinol accumulation in BCRP-overexpressing HEK293 cells (BCRP (ABCG2) [1]): more than 50%

O=C1OC(c2ccc(O)c(S(=O)(=O)O)c2)(c2ccc(O)c(S(=O)(=O)O)c2)c2c(Br)c(Br)c(Br)c(Br)c21 [bromosulfophthalein, reference compound]
3H-CCK8 uptake in human BCRP membrane vesicles (human BCRP [2]; 5 mM ATP and 200 μM BSP, 37 °C, 5 min (ATP alone 1.88, AMP 0.58)): 0.44 pmol/mg/min

COc1cc(/C=C/C(=O)CC(=O)/C=C/c2ccc(O)c(OC)c2)ccc1O [curcumin, reference compound]
(EV + I)/(EV – I), nonspecific effect on cell membranes (BCRP (ABCG2) [1]; 100 μM): 0.571
normalized oxypurinol accumulation ((BCRP + I)/(BCRP – I))/((EV + I)/(EV – I)) (BCRP (ABCG2) [1]; 100 μM): 3.7

COc1ccc(CCC(=O)c2c(O)cc(O[C@@H]3O[C@H](CO)[C@@H](O)[C@H](O)[C@H]3O[C@@H]3O[C@@H](C)[C@H](O)[C@@H](O)[C@H]3O)cc2O)cc1O [neohesperidin DC]
inhibition of BCRP-mediated 3H-CCK8 uptake in vesicles (in words) (human BCRP [3]): did not inhibit
inhibition of BCRP-mediated Lucifer yellow uptake in vesicle assays (BCRP): did inhibit

D&C Brown No. 1
increase of BCRP-mediated 3H-oxypurinol accumulation in BCRP-overexpressing HEK293 cells (BCRP (ABCG2) [4]): 26.8%
